Target: endogenous CGRP receptor (Homo sapiens, UniProt O60894+Q16602)
Test: CGRP functional antagonism using SK-N-MC-BLA (4C10), β-lactamase transcriptional reporter assay
Type: cell-based
Conditions: SK-N-MC (4C10) cells, inhibition of β-lactamase expression in the presence of 200 pM CGRP
Text: Measuring CGRP Functional Antagonism Using SK-N-MC-BLA (4C10):
CGRP functional antagonism was characterized in a cell based transcriptional assay using a recombinant SK-N-MC line. To introduce the transcriptional reporter system, SK-N-MC cell line was transduced with a retroviral vector containing β-lactamase gene downstream of cAMP responsive promoter. The expression of β-lactamase is triggered by cAMP increase that is a downstream event of activation of endogenous CGRP receptor. Single clones were separated using Fluorescent Activated Cell Sorting (FACS) based on CGRP induced β-lactamase activity. β-lactamase activity was measured using a fluorescence energy transfer (FRET) dye, CCF4. […] To evaluate functional antagonist activity of compounds in SK-N-MC (4C10) line, compounds were evaluated for their inhibition of β-lactamase expression in the presence of CGRP.
SK-N-MC (4C10) was cultured in Minimal Essential Media (MEM) (Invitrogen) supplemented with 1 mM non-essential amino acids solution (Invitrogen), 100 units/ml Penicillin-Streptomycin (Invitrogen), 1 mM sodium pyruvate (Invitrogen) and 10% fetal bovine serum. For the β-lactamase assay, low serum, 1% FBS in MEM was used. 30,000 cells were plated into each wells of poly-D-lysine coated 384-well plate (Becton Dickinson) a day prior to the assay. SK-N-MC (4C10) was preincubated with compounds for 30 min before the addition of 200 pM CGRP. The assay was incubated for 3 hours at 37° C. to allow β-lactamase expression. CCF4 dye was added and incubated for 2 hours at room temperature. […] Curve fitting and IC50 calculation were carried about using MOD3.

Sequence of endogenous CGRP receptor (Q16602 23-461): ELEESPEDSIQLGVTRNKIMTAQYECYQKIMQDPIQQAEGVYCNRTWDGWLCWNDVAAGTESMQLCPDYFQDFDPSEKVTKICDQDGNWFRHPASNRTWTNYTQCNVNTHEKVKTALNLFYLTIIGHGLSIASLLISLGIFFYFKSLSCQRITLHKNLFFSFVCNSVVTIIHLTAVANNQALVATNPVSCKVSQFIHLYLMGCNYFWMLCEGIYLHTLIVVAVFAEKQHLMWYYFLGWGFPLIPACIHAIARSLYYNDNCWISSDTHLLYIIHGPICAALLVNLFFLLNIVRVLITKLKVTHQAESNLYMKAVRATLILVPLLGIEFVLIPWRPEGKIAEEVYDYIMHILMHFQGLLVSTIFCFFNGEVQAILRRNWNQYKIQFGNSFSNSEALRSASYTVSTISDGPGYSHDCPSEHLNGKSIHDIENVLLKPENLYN
Sequence of endogenous CGRP receptor (O60894 27-148): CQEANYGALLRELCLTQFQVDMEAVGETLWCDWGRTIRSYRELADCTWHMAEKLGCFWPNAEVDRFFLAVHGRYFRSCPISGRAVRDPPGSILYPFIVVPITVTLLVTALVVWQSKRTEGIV

IC50	SMILES
< 1000 nM	CN1CCN(c2c(F)cccc2C2SC(CC(=O)N3CCC(N4Cc5ccccc5NC4=O)CC3)C(=O)N2CCC(C)(C)C)CC1 (centres unmarked) [Compound 323]
1000 to 5000 nM	CC(C)N1CCN(c2c(F)cccc2C2S[C@@](C)(CC(=O)N3CCC(n4c(=O)[nH]c5ncccc54)CC3)C(=O)N2CCC(C)(C)C)CC1 (some centres unmarked) [Compound 445]
1000 to 5000 nM	CC(C)N1CCN(c2c(F)cccc2C2SC(CC(=O)N3CCC(n4cc(-c5ccccc5)[nH]c4=O)CC3)C(=O)N2CCC(C)(C)C)CC1 (centres unmarked) [Compound 342]
> 5000 nM	CN1CCCC1CCN1C(=O)C(CC(=O)N2CCC(N3Cc4ccccc4NC3=O)CC2)SC1c1ccccc1 (centres unmarked) [Compound 77]
1000 to 5000 nM	CC(C)CCN1C(=O)C(CC(=O)N2CCC(N3Cc4ccccc4NC3=O)CC2)SC12CCCCC2 (centres unmarked) [Compound 86]
< 1000 nM	CC(C)CCN1C(=O)C(CC(=O)N2CCC(N3Cc4ccccc4NC3=O)CC2)SC1c1ccccc1OCc1ccccc1 (centres unmarked) [Compound 246]
< 1000 nM	CC1=CCCC(C)C1C1SC(CC(=O)N2CCC(N3Cc4ccccc4NC3=O)CC2)C(=O)N1CCC(C)C (centres unmarked) [Compound 100]
< 1000 nM	CCCN1C(=O)C(CC(=O)N2CCC(N3CCc4ccccc4NC3=O)CC2)SC1c1ccccc1 (centres unmarked) [Compound 38]
< 1000 nM	CC(C)(C)CCN1C(=O)C(CC(=O)N2CCC(N3Cc4ccccc4NC3=O)CC2)SC1c1c(F)cccc1F (centres unmarked) [Compound 25]
< 1000 nM	O=C(CC1SC(c2c(F)cccc2F)N(CC2CCCCC2)C1=O)N1CCC(N2Cc3ccccc3NC2=O)CC1 (centres unmarked) [Compound 210]
< 1000 nM	CC(C)(C)CC1SC(CC(=O)N2CCC(N3CCc4ccccc4NC3=O)CC2)C(=O)N1c1ccc(N2CCOCC2)cc1 (centres unmarked) [Compound 423]
< 1000 nM	CN1CCN(c2c(F)cccc2C2SC(CC(=O)N3CCC(n4c(=O)[nH]c5ccccc54)CC3)C(=O)N2CCC(C)(C)C)CC1 (centres unmarked) [Compound 338]
< 1000 nM	O=C(CC1SC(c2ccccc2)N(CC2CCCO2)C1=O)N1CCC(N2CCc3ccccc3NC2=O)CC1 (centres unmarked) [Compound 83]
< 1000 nM	CCCCN1CCN(c2ccccc2C2SC(CC(=O)N3CCC(n4c(=O)[nH]c5ncccc54)CC3)C(=O)N2CCC(C)(C)C)CC1 (centres unmarked) [Compound 366]
< 1000 nM	CN1CCN(c2c(F)cccc2C2SC(CC(=O)N3CCC(n4cc(-c5ccccc5)[nH]c4=O)CC3)C(=O)N2CCC(C)(C)C)CC1 (centres unmarked) [Compound 325]
> 5000 nM	O=C(CC1SC(Cc2ccccc2)N(CC(F)(F)F)C1=O)N1CCC(n2cc(-c3ccccc3)[nH]c2=O)CC1 (centres unmarked) [Compound 189]
> 5000 nM	CCC1SC(CC(=O)N2CCC(n3c(=O)[nH]c4ccccc43)CC2)C(=O)N1CC(F)(F)F (centres unmarked) [Compound 218]
> 5000 nM	CC(C)CCN1C(=O)C(CC(=O)N2CCC3(CC2)C(=O)NCN3c2ccccc2)SC1c1ccccc1 (centres unmarked) [Compound 186]
< 1000 nM	CN1CCN(c2ccccc2[C@H]2S[C@](C)(CC(=O)N3CCC(N4Cc5ccccc5NC4=O)CC3)C(=O)N2CCC(C)(C)C)CC1 [Compound 334]

IC50	SMILES
< 1000 nM	Cc1cccc(C)c1C1SC(CC(=O)N2CCC(N3CCc4ccccc4NC3=O)CC2)C(=O)N1CCC(C)C (centres unmarked) [Compound 123]
> 5000 nM	CC(=O)N1CC2(CCN(C(=O)CC3SC(c4ccccc4)N(CCC(C)C)C3=O)CC2)c2cc(C(F)(F)F)ccc21 (centres unmarked) [Compound 131]
< 1000 nM	CCN1CCN(c2c(F)cccc2C2SC(CC(=O)N3CCC(n4cc(-c5ccccc5)[nH]c4=O)CC3)C(=O)N2CCC(C)(C)C)CC1 (centres unmarked) [Compound 346]
< 1000 nM	CN1CCN(c2ccccc2[C@@H]2SC(CC(=O)N3CCC(n4c(=O)[nH]c5ncccc54)CC3)C(=O)N2CCC(C)(C)C)CC1 (some centres unmarked) [Compound 274]
< 1000 nM	O=C(CC1SC(c2ccc(F)cc2F)N(CC2CCCCC2)C1=O)N1CCC(N2CCc3ccccc3NC2=O)CC1 (centres unmarked) [Compound 135]
> 5000 nM	CN1CCN(c2ccccc2[C@@H]2S[C@H](CC(=O)N3CCC(N4CCc5ccccc5NC4=O)CC3)C(=O)N2CCC(C)(C)C)CC1 [Compound 388]
> 5000 nM	CC(C)(C)CCN1C(=O)[C@H](CC(=O)N2CCC(N3CCc4ccccc4NC3=O)CC2)SC1c1cccc(F)c1N1CCNCC1 (some centres unmarked) [Compound 399]
< 1000 nM	CN1CCN(c2ccccc2C2SC(CC(=O)N3CCC(N4Cc5cccnc5NC4=O)CC3)C(=O)N2CCC(C)(C)C)CC1 (centres unmarked) [Compound 320]
1000 to 5000 nM	CC(C)(C)CCN1C(=O)C(CC(=O)N2CCC(N3CCc4ccccc4NC3=O)CC2)SC1c1cccc2cc[nH]c12 (centres unmarked) [Compound 130]
< 1000 nM	CC(C)(C)CCN1C(=O)C(CC(=O)N2CCC(N3CCc4ccccc4NC3=O)CC2)SC12c1ccccc1-c1ccccc12 (centres unmarked) [Compound 310]
1000 to 5000 nM	O=C(CC1SC(C2CCOCC2)N(c2ccc(N3CCOCC3)cc2)C1=O)N1CCC(n2c(=O)[nH]c3ncccc32)CC1 (centres unmarked) [Compound 426]
> 5000 nM	CN1CCN(c2c(Cl)cccc2C2SC(CC(=O)N3CCC(n4cc(-c5ccccc5)[nH]c4=O)CC3)C(=O)N2CCC(C)(C)C)CC1 (centres unmarked) [Compound 358]
> 5000 nM	CCCOc1ccc(C2SC(CC(=O)N3CCC(N4Cc5ccccc5NC4=O)CC3)C(=O)N2CCC(C)C)cc1 (centres unmarked) [Compound 103]
< 1000 nM	O=C(CC1SC(c2cccc(F)c2F)N(CC2CCCCC2)C1=O)N1CCC(N2Cc3ccccc3NC2=O)CC1 (centres unmarked) [Compound 92]
1000 to 5000 nM	CC(C)CCN1C(=O)C(CC(=O)N2CCC(N3CCc4ccccc4NC3=O)CC2)SC1Cc1ccccc1 (centres unmarked) [Compound 98]
< 1000 nM	Cc1cccc(C)c1C1SC(CC(=O)N2CCC(N3Cc4ccccc4NC3=O)CC2)C(=O)N1CCC(C)C (centres unmarked) [Compound 134]
< 1000 nM	CC(C)CCN1C(=O)C(CC(=O)N2CCC(n3c(=O)[nH]c4ccccc43)CC2)SC1c1ccccc1N1CCOCC1 (centres unmarked) [Compound 294]
< 1000 nM	O=C(CC1SC(c2ccccc2)N(CCC(F)(F)F)C1=O)N1CCC(N2Cc3ccccc3NC2=O)CC1 (centres unmarked) [Compound 191]
1000 to 5000 nM	CN1CCN(c2ccccc2[C@@H]2S[C@](C)(CC(=O)N3CCC(N4Cc5ccccc5NC4=O)CC3)C(=O)N2CCC(C)(C)C)CC1 [Compound 333]

IC50	SMILES
1000 to 5000 nM	CC(C)CCN1C(=O)C(CC(=O)N2CCC(N3CCc4ccccc4NC3=O)CC2)SC1c1cccc(OC(F)(F)C(F)F)c1 (centres unmarked) [Compound 247]
1000 to 5000 nM	CN(C)CCN(C)c1ccccc1C1SC(CC(=O)N2CCC(N3CCc4ccccc4NC3=O)CC2)C(=O)N1CCC(C)(C)C (centres unmarked) [Compound 383]
< 1000 nM	CC(C)(C)CCN1C(=O)[C@H](CC(=O)N2CCC(O)(c3ccc(F)cc3)CC2)S[C@@H]1c1cccc(F)c1N1CCN(C(C)(C)C)CC1 [Compound 453]
1000 to 5000 nM	CC(C)(C)CCN1C(=O)[C@H](CC(=O)N2CCC(n3nnc4ccccc43)CC2)SC1c1cccc(F)c1N1CCN(C(C)(C)C)CC1 (some centres unmarked) [Compound 451]
1000 to 5000 nM	CN1C(=O)C(CC(=O)N2CCC(N3Cc4ccccc4NC3=O)CC2)SC1c1ccccc1 (centres unmarked) [Compound 273, 3,4-Dihydro-3-(1-(2-(3-methyl-4-oxo-2-phenylthiazolidin-5-yl)acetyl)piperidin-4-yl)quinazolin-2(1H)-one]
< 1000 nM	CCOCCCN1C(=O)C(CC(=O)N2CCC(N3CCc4ccccc4NC3=O)CC2)SC1c1ccccc1 (centres unmarked) [Compound 4]
> 5000 nM	C[C@@H]1CN(c2c(F)cccc2[C@@H]2S[C@@H](CC(=O)N3CCC(N4CCc5ccccc5NC4=O)CC3)C(=O)N2CCC(C)(C)C)C[C@H](C)N1 [Compound 476]
1000 to 5000 nM	CC(C)CCN1C(=O)C(CC(=O)N2CCC(N3Cc4ccccc4NC3=O)CC2)SC1c1ccc(S(C)(=O)=O)cc1 (centres unmarked) [Compound 5]
1000 to 5000 nM	CC(C)(C)CCN1C(=O)C(CC(=O)N2CCC(N3Cc4ccccc4NC3=O)CC2)SC1c1c[nH]cn1 (centres unmarked) [Compound 305]
< 1000 nM	CN1CCCN(c2ccccc2C2SC(CC(=O)N3CCC(N4CCc5ccccc5NC4=O)CC3)C(=O)N2CCC(C)(C)C)CC1 (centres unmarked) [Compound 370]
< 1000 nM	O=C(CC1SC(c2ccccc2)N(Cc2cccnc2)C1=O)N1CCC(N2CCc3ccccc3NC2=O)CC1 (centres unmarked) [Compound 185]
> 5000 nM	CN1CCN(c2ccccc2C2SC(CC(=O)N3CCC4(CC3)CC(=O)c3ccccc3O4)C(=O)N2CCC(C)(C)C)CC1 (centres unmarked) [Compound 332]
1000 to 5000 nM	CN1CCN(c2ccccc2[C@H]2S[C@](C)(CC(=O)N3CCC(N4CCc5ccccc5NC4=O)CC3)C(=O)N2CCC(C)(C)C)CC1 [Compound 377]
< 1000 nM	CN(c1ccccc1C1SC(CC(=O)N2CCC(n3c(=O)[nH]c4ncccc43)CC2)C(=O)N1CCC(C)(C)C)[C@@H]1CCN(Cc2ccccc2)C1 (some centres unmarked) [Compound 408]
< 1000 nM	Cc1ccc(C2SC(CC(=O)N3CCC(N4Cc5ccccc5NC4=O)CC3)C(=O)N2CCC(C)C)c(C)c1 (centres unmarked) [Compound 222]
< 1000 nM	CC(C)N1CCN(c2cccc(Cl)c2C2S[C@@H](CC(=O)N3CCC(n4c(=O)[nH]c5ncccc54)CC3)C(=O)N2CCC(C)(C)C)CC1 (some centres unmarked) [Compound 438]
< 1000 nM	CC(C)(C)CCN1C(=O)[C@H](CC(=O)N2CCC(N3Cc4ccccc4NC3=O)CC2)S[C@H]1c1cccc(F)c1N1CCC(N)C1 (some centres unmarked) [Compound 472]
1000 to 5000 nM	CN1CCN(c2ccccc2[C@H]2SC(CC(=O)N3CCC(n4c(=O)[nH]c5ccccc54)CC3)C(=O)N2CCC(C)(C)C)CC1 (some centres unmarked) [Compound 22]
